Patent US9346761B2, “Arginine methyltransferase inhibitors and uses thereof” (Epizyme, Inc., priority 2013, dated 2016)

What was measured:
Full-length human PRMT6 = target: T1, Full-length human PRMT6 (Homo sapiens, UniProt Q96LA8); assay: PRMT6 biochemical assay (3H-SAM Flashplate, peptide substrate)
T1 construct: Flag-PRMT6-His was eluted with 200 ug/ml FLAG peptide in the same buffer; made in house; host or cells: HEK 293F cells (BacMam virus, pFastBacMam)
Method in brief: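 Read-out is 3H-methylated histone H4 (36-50) peptide bound to streptavidin Flashplates after a cold-SAM stop. Baculovirus-expressed Flag-PRMT6-His met compound for 30 min at room temperature before SAM and peptide; Bicine pH 7.6 buffer. IC50 fitted to % inhibition normalized to SAH (min) and DMSO (max).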

Human CARM1 (PRMT4) = target: T2, Human CARM1 (PRMT4) (Homo sapiens, UniProt Q86X55); assay: CARM1 biochemical assay (3H-SAM Flashplate, peptide substrate)
T2 construct: Flag-CARM1-His was eluted with 200 ug/ml FLAG peptide in buffer A; made in house; host or cells: HEK 293F cells (BacMam virus, pFastBacMam)
T2 sequence (Q86X55 with tags, fused parts or gaps isoform Q86X55-1): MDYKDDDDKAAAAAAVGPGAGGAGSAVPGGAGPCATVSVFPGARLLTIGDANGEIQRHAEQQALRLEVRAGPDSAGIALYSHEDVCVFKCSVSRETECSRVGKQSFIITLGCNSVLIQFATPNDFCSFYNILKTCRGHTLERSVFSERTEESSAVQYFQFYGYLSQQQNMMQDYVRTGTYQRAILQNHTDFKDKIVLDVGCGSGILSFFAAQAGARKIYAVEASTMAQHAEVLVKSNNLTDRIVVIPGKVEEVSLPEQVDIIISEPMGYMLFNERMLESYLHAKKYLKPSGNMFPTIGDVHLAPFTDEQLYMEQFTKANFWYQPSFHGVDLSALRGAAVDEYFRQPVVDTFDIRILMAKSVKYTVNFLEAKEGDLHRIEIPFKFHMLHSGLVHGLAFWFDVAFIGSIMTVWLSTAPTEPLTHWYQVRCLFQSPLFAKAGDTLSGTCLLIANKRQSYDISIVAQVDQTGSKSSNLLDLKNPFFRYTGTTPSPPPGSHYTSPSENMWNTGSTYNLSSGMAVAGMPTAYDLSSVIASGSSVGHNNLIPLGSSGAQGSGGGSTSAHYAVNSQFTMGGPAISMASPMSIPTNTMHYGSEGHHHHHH
From the text: General Materials. S-adenosylmethionine (SAM), S-adenosylhomocysteine (SAH), bicine, Tween20, dimethylsulfoxide (DMSO), bovine skin gelatin (BSG), sodium butyrate and Tris(2-carboxyethyl)phosphine hydrochloride solution (TCEP) were purchased from Sigma-Aldrich at the highest level of purity possible. ^3H-SAM was purchase from American Radiolabeled Chemicals with a specific activity of 80 Ci/mmol. 384-well streptavidin Flashplates were purchased from PerkinElmer.
Substrates. Peptide representative of human histone H3 residues 16-30 was synthesized with an N-terminal linker-affinity tag motif and a C-terminal amide cap by 21st Century Biochemicals.
Protein Expression. Recombinant baculovirus were generated according to Bac-to-Bac kit instructions (Life Technologies). […] Infections were carried out at 37° C. for 48 hours, harvested by centrifugation, and stored at −80° C. for purification.
Protein Purification. […] Column was washed with 500 mM NaCl in buffer A and Flag-CARM1-His was eluted with 200 ug/ml FLAG peptide in buffer A. Pooled fractions were dialyzed in 20 mM Tris, 150 mM NaCl, 5% glycerol and 1 mM DTT, pH 7.8.
General Procedure for CARM1 Enzyme Assays on Peptide Substrates. The assays were all performed in a buffer consisting of 20 mM Bicine (pH=7.6), 1 mM TCEP, 0.005% BSG, and 0.002% Tween 20, prepared on the day of use. […] DMSO (1 ul) was added to Columns 11, 12, 23, 24, rows A-H for the maximum signal control and 1 ul of SAH, a known product and inhibitor of CARM1, was added to columns 11, 12, 23, 24, rows I-P for the minimum signal control. A cocktail (40 ul) containing the CARM1 enzyme was added by Multidrop Combi (Thermo-Fisher). The compounds were allowed to incubate with CARM1 for 30 min at room temperature, then a cocktail (10 ul) containing ^3H-SAM and peptide was added to initiate the reaction (final volume=51 ul). […] The assays were stopped by the addition of non-radiolabeled SAM (10 ul) to a final concentration of 300 uM, which dilutes the ^3H-SAM to a level where its incorporation into the peptide substrate is no longer detectable. 50 ul of the reaction in the 384-well polypropylene plate was then transferred to a 384-well Flashplate and the biotinylated peptides were allowed to bind to the streptavidin surface for at least 1 hour before being washed once with 0.1% Tween20 in a Biotek ELx405 plate washer. The plates were then read in a PerkinElmer TopCount plate reader to measure the quantity of ^3H-labeled peptide bound to the Flashplate surface, measured as disintegrations per minute (dpm) or alternatively, referred to as counts per minute (cpm).
Where dpm=disintegrations per minute, cmpd=signal in assay well, and min and max are the respective minimum and maximum signal controls.
Where top and bottom are the normally allowed to float, but may be fixed at 100 or 0 respectively in a 3-parameter fit. The Hill Coefficient normally allowed to float but may also be fixed at 1 in a 3-parameter fit. Y is the % inhibition and X is the compound concentration.

T1 sequence (Q96LA8 with tags, fused parts or gaps): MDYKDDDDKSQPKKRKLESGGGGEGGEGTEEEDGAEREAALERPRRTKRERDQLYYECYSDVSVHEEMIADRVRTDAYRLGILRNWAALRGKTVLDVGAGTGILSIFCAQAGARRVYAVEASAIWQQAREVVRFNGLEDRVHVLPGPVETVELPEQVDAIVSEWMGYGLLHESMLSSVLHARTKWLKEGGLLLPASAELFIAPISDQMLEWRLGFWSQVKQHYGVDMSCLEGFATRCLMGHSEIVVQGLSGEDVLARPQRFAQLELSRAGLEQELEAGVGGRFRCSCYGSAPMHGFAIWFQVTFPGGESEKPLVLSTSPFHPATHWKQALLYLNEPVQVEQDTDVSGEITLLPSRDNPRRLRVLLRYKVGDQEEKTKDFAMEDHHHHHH

Row | SMILES | IC50 (Full-length human PRMT6) [nM] | IC50 (Human CARM1 (PRMT4)) [nM]
1 | COCCn1cc(CN(C)CCN)c(-c2ccc(F)cc2)n1 [Compound 5] | 101 to 1000 | > 10000
2 | COCCn1ncc(CN(C)CCN)c1-c1ccc(F)cc1 [Compound 6] | 101 to 1000 | > 10000
3 | CCn1ncc(CN(C)CCNC)c1-c1ccc(F)cc1 [Compound 7] | < 100 | 1010 to 3000
4 | CCn1cc(CN(C)CCNC)c(-c2ccc(F)cc2)n1 [Compound 8] | 101 to 1000 | 3010 to 10000
5 | CN(CCN)Cc1c[nH]nc1-c1ccc(Cl)cc1 [Compound 95] | < 100 | 101 to 1000
6 | CN(CCN)Cc1c[nH]nc1-c1ccc(OCC(F)(F)F)cc1 [Compound 96] | < 100 | < 100
7 | CC(C)Oc1ccc(-c2n[nH]cc2CN(C)CCN)cc1F [Compound 97] | < 100 | 101 to 1000
8 | CN(CCN)Cc1c[nH]nc1-c1ccc(C2CCOCC2)cc1 [Compound 98] | < 100 | 101 to 1000
9 | CN(CCN)Cc1c[nH]nc1-c1ccc(F)cc1F [Compound 99] | < 100 | 3010 to 10000
10 | CN(CCN)Cc1n[nH]cc1-c1ccc(C#N)cc1 [Compound 100] | < 100 | 3010 to 10000
11 | CC(C)c1ccc(-c2c[nH]nc2CN(C)CCN)cc1 [Compound 101] | 101 to 1000 | 3010 to 10000
12 | CN(CCN)Cc1n[nH]cc1-c1ccc(Cl)cc1 [Compound 102] | < 100 | 1010 to 3000
13 | CN(CCN)Cc1n[nH]cc1-c1ccc(C(F)(F)F)cc1 [Compound 103] | < 100 | 1010 to 3000
14 | CN(CCN)Cc1n[nH]cc1-c1ccc(C2CC2)cc1 [Compound 104] | < 100 | 1010 to 3000
15 | CN(CCN)Cc1n[nH]cc1-c1ccc(OC(F)(F)F)cc1 [Compound 105] | < 100 | 3010 to 10000
16 | CN(CCN)Cc1c[nH]nc1-c1cc(F)ccc1Cl [Compound 106] | < 100 | > 10000
17 | COc1ccc(-c2n[nH]cc2CN(C)CCN)c(F)c1 [Compound 107] | < 100 | 1010 to 3000
18 | Cc1ccc(-c2n[nH]cc2CN(C)CCN)c(F)c1 [Compound 108] | < 100 | 1010 to 3000
19 | COc1ccccc1-c1n[nH]cc1CN(C)CCN [Compound 109] | 101 to 1000 | 3010 to 10000

Row | SMILES | IC50 (Full-length human PRMT6) [nM] | IC50 (Human CARM1 (PRMT4)) [nM]
20 | Cc1cc(C#N)ccc1-c1n[nH]cc1CN(C)CCN [Compound 110] | < 100 | 3010 to 10000
21 | CN(CCN)Cc1c[nH]nc1-c1cc(F)cc(F)c1 [Compound 111] | < 100 | 101 to 1000
22 | CC(=O)c1cccc(-c2n[nH]cc2CN(C)CCN)c1 [Compound 112] | < 100 | 1010 to 3000
23 | CN(CCN)Cc1cnn(CC(O)CO)c1-c1ccc(F)cc1 (stereo not drawn) [Compound 113] | 101 to 1000 | > 10000
24 | CN(CCN)Cc1c[nH]nc1-c1ccc(OC2CC2)cc1 [Compound 114] | < 100 | 101 to 1000
25 | CC(O)c1ccc(-c2n[nH]cc2CN(C)CCN)cc1 (stereo not drawn) [Compound 115] | < 100 | 3010 to 10000
26 | CN(CCN)Cc1c[nH]nc1-c1ccc(C2CC2)cc1 [Compound 116] | < 100 | 1010 to 3000
27 | CN(CCN)Cc1c[nH]nc1-c1ccc(C(F)(F)F)c(Cl)c1 [Compound 117] | < 100 | 101 to 1000
28 | CN(CCN)Cc1c[nH]nc1-c1ccc(Cl)c(F)c1 [Compound 118] | < 100 | 101 to 1000
29 | CN(CCN)Cc1n[nH]cc1-c1ccc(OC2CC2)cc1 [Compound 119] | < 100 | 101 to 1000
30 | CN(CCN)Cc1c[nH]nc1-c1cc(F)cc(Cl)c1 [Compound 121] | < 100 | 101 to 1000
31 | CN(CCN)Cc1c[nH]nc1-c1cccc(Cl)c1 [Compound 122] | < 100 | 101 to 1000
32 | CN(CCN)Cc1c[nH]nc1-c1cccc(Cl)c1F [Compound 123] | < 100 | 1010 to 3000
33 | CN(CCN)Cc1c[nH]nc1-c1ccc(F)c(Cl)c1 [Compound 124] | < 100 | 101 to 1000
34 | COc1ccc(-c2n[nH]cc2CN(C)CCN)cc1Cl [Compound 125] | < 100 | 1010 to 3000
35 | Cc1ccc(-c2n[nH]cc2CN(C)CCN)cc1Cl [Compound 126] | < 100 | 101 to 1000
36 | COc1cc(Cl)cc(-c2n[nH]cc2CN(C)CCN)c1 [Compound 127] | < 100 | 1010 to 3000
37 | CN(CCN)Cc1cn(CC2CCOCC2)nc1-c1ccc(F)cc1 [Compound 128] | 1010 to 3000 | > 10000
38 | Cc1c(F)cccc1-c1n[nH]cc1CN(C)CCN [Compound 129] | < 100 | 1010 to 3000

Row | SMILES | IC50 (Full-length human PRMT6) [nM] | IC50 (Human CARM1 (PRMT4)) [nM]
39 | COc1cccc(-c2n[nH]cc2CN(C)CCN)c1 [Compound 130] | < 100 | 1010 to 3000
40 | Cc1cccc(-c2n[nH]cc2CN(C)CCN)c1 [Compound 131] | < 100 | 1010 to 3000
41 | CN(CCN)Cc1c[nH]nc1-c1ccc(Cl)cc1F [Compound 132] | < 100 | 1010 to 3000
42 | Cc1cc(Cl)ccc1-c1n[nH]cc1CN(C)CCN [Compound 133] | < 100 | 3010 to 10000
43 | COc1ccc(-c2n[nH]cc2CN(C)CCN)cc1F [Compound 134] | < 100 | 1010 to 3000
44 | CN(CCN)Cc1c[nH]nc1-c1ccc(C(F)(F)F)cc1Cl [Compound 135] | < 100 | > 10000
45 | CCNC(=O)c1ccc(-c2n[nH]cc2CN(C)CCN)cc1 [Compound 136] | < 100 | 1010 to 3000
46 | CN(CCN)Cc1c[nH]nc1-c1cc(Cl)cc(Cl)c1 [Compound 137] | < 100 | 101 to 1000
47 | CN(CCN1CCCC1)Cc1c[nH]nc1-c1ccc(C#N)cc1 [Compound 139] | – | > 10000
48 | CCN(C)C(=O)c1ccc(-c2n[nH]cc2CN(C)CCN)cc1 [Compound 163] | < 100 | –
49 | CC(C)CN(C)C(=O)c1ccc(-c2n[nH]cc2CN(C)CCN)cc1 [Compound 164] | < 100 | –
50 | CCOc1ccc(-c2n[nH]cc2CN(C)CCN)cc1 [Compound 166] | < 100 | –
51 | COCCOc1ccc(-c2n[nH]cc2CN(C)CCN)cc1 [Compound 167] | < 100 | –
52 | Cc1[nH]nc(-c2ccc(F)cc2)c1CN(C)CCN [Compound 169] | < 100 | –
53 | CC(C)Cc1ccc(-c2c[nH]nc2CN(C)CCN)cc1 [Compound 170] | < 100 | –
54 | NCCN(CCO)Cc1c[nH]nc1-c1ccc(F)cc1 [Compound 171] | 1010 to 3000 | –
55 | CN(CCN)Cc1c[nH]nc1-c1ccc(OCCN2CCOCC2)cc1 [Compound 172] | < 100 | –
56 | CN(CCN)Cc1c[nH]nc1-c1ccc2c(c1)NC(=O)CO2 [Compound 173] | < 100 | –
